Data taken from US8212051B2, “Process for the preparation of pure irbesartan” (Lek Pharmaceuticals, D.D., priority 2006, dated 2012).
Counter-ions that a name gives are not always drawn.

Assays:
[1] = Stability against degradation when dissolved in hot mixture of solvents and extracted; format: physicochemical; conditions: salt dissolved in hot mixture of solvents and extracted; compared with purification via HCl salt
[2] = Solubility in boiling acetone (amount of acetone needed to dissolve 1 g); format: physicochemical; conditions: per 1 g substance

| SMILES | stability against degradation [1] | amount of acetone needed to dissolve 1 g [2] |
| --- | --- | --- |
| CCCCC1=NC2(CCCC2)C(=O)N1Cc1ccc(-c2ccccc2-c2nnn[nH]2)cc1 [irbesartan HBr, hydrobromide acid addition salt of 2-n-butyl-3-[[2′-(tetrazol-5-yl)biphenyl-4-yl]methyl]-1.3-diazaspiro[4.4]non-1-en-4-one] | more stable against degradation | 6 mL |
| CCCCC1=NC2(CCCC2)C(=O)N1Cc1ccc(-c2ccccc2-c2nnn[nH]2)cc1 [irbesartan HCl] |  | 15 mL |
| CCCCC1=NC2(CCCC2)C(=O)N1Cc1ccc(-c2ccccc2-c2nnn[nH]2)cc1 [irbesartan, 2-n-butyl-3-[[2′-(tetrazol-5-yl)biphenyl-4-yl]methyl]-1.3-diazaspiro[4.4]non-1-en-4-one] |  | 100 mL |
